Source: a melting point compilation (Tetko et al.)

conditions: a range is the spread between reports

SMILES	melting point [°C]
c1ccc(CSCc2ccccc2)cc1	49 to 49.5
CCC(C)(C)O	-12 to -8
O=C(O)C(F)(F)C(F)(F)C(=O)O	115 to 119
N#CCc1ccccc1C(F)(F)F	30 to 33
Cc1c[nH]c(=O)[nH]c1=O	316 to 317
O=C1CCOc2ccccc21	36.5 to 38
Oc1ccccc1C(F)(F)F	45.5 to 46
CCCCCCCCCCCCCCCCCCCCCCCCCCC	59 to 59.5
Cc1ccc(N(CC2=NCCN2)c2cccc(O)c2)cc1	174 to 175
Clc1cc(Cl)c(Cl)nc1Cl	90.5 to 91
CC(C)(C)c1ccccc1O	-7 to -6.8
CC(C)CCCC(C)C1CCC2C3CC=C4CC(O)CCC4(C)C3CCC12C (centres undefined)	148 to 149
CC(=O)NS(=O)(=O)c1ccc(N)cc1	182 to 183
O=C(O)CCI	81.5 to 82
CC(=O)NC12CC3CC(CC(C3)C1)C2	148
Fc1ccccc1	-42.2 to -40
N#CC(c1ccccc1)c1ccccc1	74 to 74.3
Cc1cccc(-c2cccc(C)c2)c1	7 to 9
CC(C)CC(N)=O	136 to 137
Oc1ccc(Cc2ccc(O)cc2)cc1	161 to 162
O=C(O)[C@H](O)[C@@H](O)C(=O)O	169 to 171

SMILES	melting point [°C]
CC12C=CC(=O)C=C1CCC1C2C(O)CC2(C)C1CCC2(O)C(=O)CO (centres undefined)	235 to 240
c1ccc(-c2cccc(-c3ccccn3)n2)nc1	90 to 91
COc1cccc(C=O)c1O	41 to 44.5
C=C(C(=O)O)C(F)(F)F	50 to 51.5
O=C(Cl)c1ccccc1Br	10 to 11
O=C1c2ccccc2C(=O)c2c(O)ccc(O)c21	197 to 200
N#CCc1ccc(Cl)cc1	30 to 31
C=CCCCCCCCCC(=O)O	24 to 24.5
CC(=O)Nc1ccc(C=O)cc1	156 to 160
OCCc1c[nH]c2ccccc12	58 to 59
O=[N+]([O-])c1ccc(Oc2ccc(C(F)(F)F)cc2[N+](=O)[O-])cc1	90 to 94
CC12CCC(=O)C=C1CCC1C2C(=O)CC2(C)C1CCC2(O)C(=O)CO (centres undefined)	222 to 226
CC1CNCC(C)O1 (centres undefined)	-88 to -85
CC12CCC(C1)C(C)(C)C2O (centres undefined)	43.5 to 48
COC(=O)c1cccc(Br)c1	32 to 33
O=[N+]([O-])c1cccc(CO)c1	30.5 to 32
CCCCCCC	-91 to -90.6
COc1ccc2c(c1OC)C(=O)OC2	101 to 102
Cc1ccc(O)c([N+](=O)[O-])c1	34 to 36.5
c1ccc2c(c1)Nc1ccccc1S2	184 to 188
Cc1c(C(=O)O)cnn1-c1ccccc1	167 to 168

SMILES	melting point [°C]
CC(=O)N[C@@H](CS)C(=O)O	110
N#Cc1ccc2c(c1)OCO2	93 to 94
CC(=O)c1ccc(C#N)cc1	57 to 59
CN1C(=O)OC(C)(C)C1=O	46 to 47
COc1ccc(Cl)c(Cl)c1Cl	69 to 70
O=C(O)CCCCCCCC(=O)O	102 to 106
O=[N+]([O-])c1cccc2ccccc12	57 to 62
OCc1ccccc1CO	62 to 64
c1ccc(COc2ccccc2)cc1	39 to 40
O=C(O)c1c(F)ccc(F)c1F	130 to 131
OCC(F)(F)C(F)(F)C(F)(F)CO	78 to 79.5
Cc1c(C)c(C)c(C)c(C)c1C	164 to 168
N#Cc1ccc(I)cc1	125 to 126
NC=O	2 to 2.55
N#Cc1cccc(O)c1	79.5 to 82
Cn1ccnc1S	146 to 147
O=[N+]([O-])c1cccs1	44 to 46.5
CC(C)=CCN1CCC2(C)c3cc(O)ccc3CC1C2C (centres undefined)	146
COc1ccc(C(=O)c2ccc(OC)cc2O)c(O)c1	135 to 140
COc1cc(C(=O)O)cc(OC)c1O	205 to 208
O=C(O)c1cccc(Oc2ccccc2)c1	148 to 150

SMILES	melting point [°C]
CCn1c2ccccc2c2ccccc21	68 to 69
O=C(O)C=Cc1ccccc1C(F)(F)F	202 to 206
Cc1cccc2c1ccc1cc(C(C)C)ccc12	99 to 101
C=Cc1ccccc1Br	-53 to -52.5
CC(C)CN	-87 to -85
Cc1cc(N)ccc1Cl	83.5 to 84
CCCCCCCC(C)O (centres undefined)	-35.5 to -35
Cc1cccc(N)n1	41 to 43
CC#N	-48 to -43.8
CCCCCC(C)CC (centres undefined)	-108
O=[N+]([O-])c1ccccc1I	50 to 54
O=C1CCCCC1=O	37 to 40
CCCC1CCCCC1	-95 to -94.9
CC(=O)OC(C)C	-73.4 to -73
C1CCC1	-91 to -90.6
CN1CCC(O)CC1	28 to 29
CC(=O)Nc1nnc(S(N)(=O)=O)s1	258 to 260
CCCCCCCBr	-58 to -56
CCc1nnc(N)s1	200 to 201
BrCCCBr	-34.2 to -34
CC(=O)Nc1ccc(Cl)cc1F	155 to 157
